Data taken from ChEMBL document CHEMBL5257028, “Recent advances in the discovery of heparanase inhibitors as anti-cancer agents” (Eur J Med Chem, 2016).
Each block holds one compound with its values, some of them ahead of it.

Assays:
B16-F10 = test: Antimigratory activity against mouse B16-F10 cells assessed as inhibition on cell migration
P-selectin = target: T1, P-selectin (Mus musculus, UniProt Q01102); test: Inhibition of mouse P-selectin assessed as inhibition of adhesion to human LS180 cells to immobilized P-selectin incubated for 1 hrs by ELISA; assay type: cell-based
T1 sequence (Q01102 whole entry): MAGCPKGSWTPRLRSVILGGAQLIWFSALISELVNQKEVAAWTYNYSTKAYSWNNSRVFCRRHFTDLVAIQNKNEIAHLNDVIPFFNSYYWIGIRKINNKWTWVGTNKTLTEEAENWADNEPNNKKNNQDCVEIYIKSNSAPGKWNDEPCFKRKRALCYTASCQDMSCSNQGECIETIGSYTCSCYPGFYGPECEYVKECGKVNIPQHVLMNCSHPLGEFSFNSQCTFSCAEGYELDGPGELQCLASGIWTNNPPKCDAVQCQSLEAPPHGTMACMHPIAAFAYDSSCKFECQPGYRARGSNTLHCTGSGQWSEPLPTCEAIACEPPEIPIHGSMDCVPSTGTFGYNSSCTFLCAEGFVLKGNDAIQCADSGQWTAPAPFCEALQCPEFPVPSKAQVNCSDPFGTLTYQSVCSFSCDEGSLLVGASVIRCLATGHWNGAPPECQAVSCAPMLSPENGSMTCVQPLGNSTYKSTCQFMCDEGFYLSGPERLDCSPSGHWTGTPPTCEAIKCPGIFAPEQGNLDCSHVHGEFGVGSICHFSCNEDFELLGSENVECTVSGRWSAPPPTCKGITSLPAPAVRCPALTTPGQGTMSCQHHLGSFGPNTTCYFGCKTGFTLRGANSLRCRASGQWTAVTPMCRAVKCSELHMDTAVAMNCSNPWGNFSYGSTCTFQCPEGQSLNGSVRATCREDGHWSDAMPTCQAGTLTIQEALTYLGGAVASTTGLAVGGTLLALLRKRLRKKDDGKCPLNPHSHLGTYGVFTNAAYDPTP

[1] = target: T2, Heparanase (Homo sapiens) (UniProt Q9Y251); test: Inhibition of recombinant human heparanase at 5 ug/ml incubated for 4 hrs by beta-scintillation counter analysis relative to control; conditions: dose 5.0 µg/ml
T2 sequence (whole entry): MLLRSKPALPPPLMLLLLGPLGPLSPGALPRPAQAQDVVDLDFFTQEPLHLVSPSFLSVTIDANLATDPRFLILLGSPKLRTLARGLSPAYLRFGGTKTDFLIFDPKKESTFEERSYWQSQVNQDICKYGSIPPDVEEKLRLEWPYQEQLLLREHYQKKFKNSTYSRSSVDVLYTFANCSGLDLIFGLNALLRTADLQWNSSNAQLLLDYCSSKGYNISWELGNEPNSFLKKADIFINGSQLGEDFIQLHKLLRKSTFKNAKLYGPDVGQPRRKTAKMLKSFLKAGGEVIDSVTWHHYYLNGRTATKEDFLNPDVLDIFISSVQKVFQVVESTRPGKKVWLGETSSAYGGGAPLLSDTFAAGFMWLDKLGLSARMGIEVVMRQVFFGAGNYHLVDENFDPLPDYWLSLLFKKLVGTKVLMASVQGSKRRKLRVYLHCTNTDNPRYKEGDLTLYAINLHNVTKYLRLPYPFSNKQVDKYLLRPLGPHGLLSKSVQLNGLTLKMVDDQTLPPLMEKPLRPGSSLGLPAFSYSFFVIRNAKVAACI

[2] = Anti-angiogenic activity in human endothelial cells assessed as reduction in cell growth incubated for 11 days by PECAM-1 staining based image analysis; conditions: 264 h
HeLa = test: Cytotoxicity against human HeLa cells assessed as growth inhibition; assay type: functional, cell-based
[3] = Half life in mouse; assay type: ADME, organism-based; conditions: in vivo

SMILES: COc1ccc(N2C(=O)c3ccc(C(=O)O)cc3C2=O)cc1-c1nc2cc(-c3ccc4c(c3)OCO4)ccc2o1
- IC50 [2]: 3 µM

SMILES: CCCNc1ccc(N2C(=O)c3ccc(C(=O)O)cc3C2=O)cc1-c1nc2cc(-c3ccc(Br)cc3)ccc2o1
- IC50 [2]: 0.25 µM

SMILES: CCCCCCCCCCCCCCCc1c(O[C@H]2O[C@H](C(=O)OC)[C@@H](O)[C@H](O)[C@H]2O)ccc(O)c1C(=O)Oc1cc(C)c(C(=O)O)c(O)c1
- IC50 (B16-F10): 30 µM

SMILES: COc1ccc(C2CNC(c3ccccc3F)OC23CCCCC3)cc1 (configuration not stated)
- IC50 (HeLa): 48.2 µM

SMILES: O=C(O)Cc1nc(-c2ccc(-c3ccc(NC(=O)/C=C/c4ccc(Br)cc4)cc3Cl)o2)cs1
- half-life [3]: 30 min
- IC50 [2]: 1 µM

SMILES: O=C(O)Cc1ccc2oc(-c3ccc(/C=C/C(=O)Nc4ccc(Cl)cc4Cl)cc3F)nc2c1
- IC50 [2]: 2 µM

SMILES: O=C(O)c1ccc2c(c1)C(=O)N(c1cccc(-c3nc4ccccc4o3)c1)C2=O
- IC50 [2]: 40 µM

Continued, values first:

- IC50 (B16-F10): 15 µM
SMILES: CCCCCCCCCCCCCCCc1c(O[C@H]2O[C@H](C(=O)O)[C@@H](O)[C@H](O)[C@H]2O)ccc(O)c1C(=O)Oc1cc(C)c(C(=O)O)c(O)c1

- IC50 (P-selectin): 58.2 µM
SMILES: O=S(=O)(O)OC[C@@H]1O[C@@H](O[C@@H]2[C@@H](OS(=O)(=O)O)[C@H](OS(=O)(=O)O)C(C3O[C@H](COS(=O)(=O)O)[C@@H](O[C@H]4O[C@H](COS(=O)(=O)O)[C@@H](O[C@H]5O[C@H](COS(=O)(=O)O)[C@@H](OS(=O)(=O)O)[C@H](OS(=O)(=O)O)[C@H]5OS(=O)(=O)O)[C@H](OS(=O)(=O)O)[C@H]4OS(=O)(=O)O)[C@H](OS(=O)(=O)O)[C@H]3OS(=O)(=O)O)O[C@H]2COS(=O)(=O)O)[C@@H](OS(=O)(=O)O)[C@H](OS(=O)(=O)O)[C@H]1O[C@@H]1O[C@@H](COS(=O)(=O)O)[C@H](OS(=O)(=O)O)[C@@H](OS(=O)(=O)O)[C@@H]1OS(=O)(=O)O (stereo in doubt; form 1) [listing 1 of 2 here]

- inhibition [1]: 58%
SMILES: O=S(=O)(O)OC[C@@H]1O[C@@H](O[C@@H]2[C@@H](OS(=O)(=O)O)[C@H](OS(=O)(=O)O)C(C3O[C@H](COS(=O)(=O)O)[C@@H](O[C@H]4O[C@H](COS(=O)(=O)O)[C@@H](O[C@H]5O[C@H](COS(=O)(=O)O)[C@@H](OS(=O)(=O)O)[C@H](OS(=O)(=O)O)[C@H]5OS(=O)(=O)O)[C@H](OS(=O)(=O)O)[C@H]4OS(=O)(=O)O)[C@H](OS(=O)(=O)O)[C@H]3OS(=O)(=O)O)O[C@H]2COS(=O)(=O)O)[C@@H](OS(=O)(=O)O)[C@H](OS(=O)(=O)O)[C@H]1O[C@@H]1O[C@@H](COS(=O)(=O)O)[C@H](OS(=O)(=O)O)[C@@H](OS(=O)(=O)O)[C@@H]1OS(=O)(=O)O (stereo in doubt; form 2)

- inhibition [1]: 85%
SMILES: O=S(=O)(O)OC[C@@H]1O[C@@H](O[C@@H]2[C@@H](OS(=O)(=O)O)[C@H](OS(=O)(=O)O)C(C3O[C@H](COS(=O)(=O)O)[C@@H](O[C@H]4O[C@H](COS(=O)(=O)O)[C@@H](O[C@H]5O[C@H](COS(=O)(=O)O)[C@@H](OS(=O)(=O)O)[C@H](OS(=O)(=O)O)[C@H]5OS(=O)(=O)O)[C@H](OS(=O)(=O)O)[C@H]4OS(=O)(=O)O)[C@H](OS(=O)(=O)O)[C@H]3OS(=O)(=O)O)O[C@H]2COS(=O)(=O)O)[C@@H](OS(=O)(=O)O)[C@H](OS(=O)(=O)O)[C@H]1O[C@@H]1O[C@@H](COS(=O)(=O)O)[C@H](OS(=O)(=O)O)[C@@H](OS(=O)(=O)O)[C@@H]1OS(=O)(=O)O (stereo in doubt; form 1) [listing 2 of 2 here]
